The values below are quoted from earlier work in patent publication US10532971B2, “4-hydroxybutyric acid analogs” (Concert Pharmaceuticals, Inc., priority 2009, dated 2020).

SMILES strings stand for the structures. Counter-ions that a name gives are not always drawn.

The conditions of data set [1]: in humans.
The conditions of data set [2]: clinical trials; dose-dependent adverse effects.

For the compound `O=C(O)CCCO` [4-hydroxybutyric acid, 4-Hydroxybutyric acid], in data set [1], the half life is 30 to 60 min. As for `O=C(O)CCCO` [sodium oxybate, sodium salt of 4-hydroxybutyric acid], the “rates of headache, nausea, and dizziness” value in data set [2] was 17-22%.
